Experimental data: patent publication US20240285621A1, “PYRAZOLYL-PYRIMIDINE DERIVATIVES AS KINASE INHIBITORS” (NERVIANO MEDICAL SCIENCES S.R.L., priority 2020, published 2024)
Counter-ions that a name gives are not always drawn.

Columns and labels:
[1] = molecular target: T1, SYK (Homo sapiens, UniProt P43405); test: Biochemical kinase inhibition assay on SYK, KinaseGlo assay format; settings: read-out: IC50 (μM) Kglo
T1 construct: Recombinant proteins SYK FL was produced at NMS via baculo virus infection in insect cells; His; GST; made in house; host or cells: insect cells (baculovirus)

[2] = molecular target: T1, SYK; test: Biochemical kinase inhibition assay on SYK, ADPGlo assay format; settings: Table A, pre-activated SYK 0.6 nM, ATP 60 μM, BioDBn*327 125 μM, 60 minutes at room temperature
[3] = Table A, KinaseGlo format, pre-activated SYK 2.5 nM, ATP 2.5 μM, substrate BioDBn*327 125 uM, 60 minutes at rt
[4] = Table B, reference compounds of WO2012/139930, KinaseGlo format on Syk

Row | IC50 [1, 3] | IC50 [2] | IC50 [1, 4] | SMILES
1 | 0.006 µM | 0.023 µM |  | COc1cc(F)cc(Nc2nccc(-c3cc(C(=O)N[C@@H](C)CN4CCC4)n(C)n3)n2)c1 [Example 48, N-[(2S)-1-(azetidin-1-yl)propan-2-yl]-3-{2-[(3-fluoro-5-methoxyphenyl)amino]pyrimidin-4-yl}-1-methyl-1H-pyrazole-5-carboxamide]
2 | 0.009 µM | 0.038 µM |  | COc1cc(F)cc(Nc2nccc(-c3cc(C(=O)N[C@@H](C)CN(C)C)n(C)n3)n2)c1 [Example 65, N-[(2S)-1-(dimethylamino)propan-2-yl]-3-{2-[(3-fluoro-5-methoxyphenyl)amino]pyrimidin-4-yl}-1-methyl-1H-pyrazole-5-carboxamide]
3 | < 0.004 µM | 0.014 µM |  | COc1cc(Nc2nccc(-c3cc(C(=O)N[C@@H](C)CN(C)C)n(C)n3)n2)cc(OC)c1 [Example 67, 3-{2-[(3,5-dimethoxyphenyl)amino]pyrimidin-4-yl}-N-[(2S)-1-(dimethylamino)propan-2-yl]-1-methyl-1H-pyrazole-5-carboxamide]
4 | 0.008 µM | 0.01 µM |  | COc1cc(Nc2nccc(-c3cc(C(=O)N[C@@H](C)CN4CCCC4)n(C)n3)n2)cc(OC)c1 [Example 69, 3-{2-[(3,5-dimethoxyphenyl)amino]pyrimidin-4-yl}-1-methyl-N-[(2S)-1-(pyrrolidin-1-yl)propan-2-yl]-1H-pyrazole-5-carboxamide]
5 | 0.471 µM |  |  | Cc1cc(C)cc(Nc2nccc(-c3cc(C(=O)N4CC[C@H](N(C)C)C4)n(C)n3)n2)c1 [Example 86, [(3S)-3-(dimethylamino)pyrrolidin-1-yl](3-{2-[(3,5-dimethylphenyl)amino]pyrimidin-4-yl}-1-methyl-1H-pyrazol-5-yl)methanone]
6 | 0.051 µM |  |  | Cc1cc(C)cc(Nc2nccc(-c3cc(C(=O)N4CCC(N)C4)n(C)n3)n2)c1 (centres unmarked) [Example 88, (3-aminopyrrolidin-1-yl)(3-{2-[(3,5-dimethylphenyl)amino]pyrimidin-4-yl}-1-methyl-1H-pyrazol-5-yl)methanone]
7 | 0.219 µM |  |  | Cc1cc(C)cc(Nc2nccc(-c3cc(C(=O)N4CCC[C@H]4CO)n(C)n3)n2)c1 [Example 89, (3-{2-[(3,5-dimethylphenyl)amino]pyrimidin-4-yl}-1-methyl-1H-pyrazol-5-yl)[(2S)-2-(hydroxymethyl)pyrrolidin-1-yl]methanone]
8 | 0.156 µM |  |  | Cc1cc(C)cc(Nc2nccc(-c3cc(C(=O)N4CC[C@H](O)C4)n(C)n3)n2)c1 [Example 90, (3-{2-[(3,5-dimethylphenyl)amino]pyrimidin-4-yl}-1-methyl-1H-pyrazol-5-yl)[(3S)-3-hydroxypyrrolidin-1-yl]methanone]
9 | 0.035 µM |  |  | Cc1cc(C)cc(Nc2nccc(-c3cc(C(=O)N[C@@H]4CCCC[C@@H]4O)n(C)n3)n2)c1 [Example 91, 3-{2-[(3,5-dimethylphenyl)amino]pyrimidin-4-yl}-N-[(1R,2S)-2-hydroxycyclohexyl]-1-methyl-1H-pyrazole-5-carboxamide]
10 | 0.137 µM |  |  | Cc1c(C)n(C)c2ccc(Nc3nccc(-c4cc(C(=O)N[C@@H](C)CO)n(C)n4)n3)cc12 [Example 93, N-[(2S)-1-hydroxypropan-2-yl]-1-methyl-3-{2-[(1,2,3-trimethyl-1H-indol-5-yl)amino]pyrimidin-4-yl}-1H-pyrazole-5-carboxamide]
11 | 0.07 µM |  |  | Cc1cc(C)cc(Nc2nccc(-c3cc(C(=O)N4C[C@H]5C[C@H]4CN5)n(C)n3)n2)c1 [Example 96, (1S,4R)-2,5-diazabicyclo[2.2.1]hept-2-yl(3-{2-[(3,5-dimethylphenyl)amino]pyrimidin-4-yl}-1-methyl-1H-pyrazol-5-yl)methanone hydrochloride]
12 | 0.011 µM |  |  | Cn1nc(-c2ccnc(Nc3cc(Cl)cc(Cl)c3)n2)cc1C(=O)N[C@H]1CCCC[C@H]1N [Example 99, N-[(1S,2R)-2-aminocyclohexyl]-3-{2-[(3,5-dichlorophenyl)amino]pyrimidin-4-yl}-1-methyl-1H-pyrazole-5-carboxamide hydrochloride]
13 | 0.011 µM |  |  | COc1cc(Nc2nccc(-c3cc(C(=O)N[C@H]4CCCC[C@H]4N)n(C)n3)n2)cc(OC)c1 [Example 100, N-[(1S,2R)-2-aminocyclohexyl]-3-{2-[(3,5-dimethoxyphenyl)amino]pyrimidin-4-yl}-1-methyl-1H-pyrazole-5-carboxamide hydrochloride]
14 | < 0.004 µM |  |  | Cc1cc(C)cc(Nc2nccc(-c3cc(C(=O)N[C@H]4CCCC[C@H]4N)[nH]n3)n2)c1 [Example 104, N-[(1S,2R)-2-aminocyclohexyl]-3-{2-[(3,5-dimethylphenyl)amino]pyrimidin-4-yl}-1H-pyrazole-5-carboxamide hydrochloride]
15 | 0.012 µM |  |  | Cc1cc(C)cc(Nc2nccc(-c3cc(C(=O)N[C@H](CN4CCC4)C(C)C)[nH]n3)n2)c1 [Example 105, N-[(2S)-1-(azetidin-1-yl)-3-methylbutan-2-yl]-3-{2-[(3,5-dimethylphenyl)amino]pyrimidin-4-yl}-1H-pyrazole-5-carboxamide]
16 | 0.026 µM |  |  | Cc1cc(C)cc(Nc2nccc(-c3cc(C(=O)N[C@H](CN4CCCC4)c4ccccc4)n(C)n3)n2)c1 [Example 107, 3-{2-[(3,5-dimethylphenyl)amino]pyrimidin-4-yl}-1-methyl-N-[(1S)-1-phenyl-2-(pyrrolidin-1-yl)ethyl]-1H-pyrazole-5-carboxamide]

Row | IC50 [1, 3] | IC50 [2] | IC50 [1, 4] | SMILES
17 | 0.452 µM |  |  | C[C@@H](CO)NC(=O)c1cc(-c2ccnc(Nc3ccc(N4CCN(C)CC4)c(Cl)c3)n2)nn1C [Example 110, 3-(2-{[3-chloro-4-(4-methylpiperazin-1-yl)phenyl]amino}pyrimidin-4-yl)-N-[(2S)-1-hydroxypropan-2-yl]-1-methyl-1H-pyrazole-5-carboxamide]
18 | 0.144 µM |  |  | CC(C)[C@@H](CO)NC(=O)c1cc(-c2ccnc(Nc3ccc(N4CCN(C)CC4)c(Cl)c3)n2)nn1C [Example 111, 3-(2-{[3-chloro-4-(4-methylpiperazin-1-yl)phenyl]amino}pyrimidin-4-yl)-N-[(2S)-1-hydroxy-3-methylbutan-2-yl]-1-methyl-1H-pyrazole-5-carboxamide]
19 | 0.023 µM |  |  | Cc1cccc(Nc2nccc(-c3cc(C(=O)N[C@H](CN4CCCC4)C(C)C)n(C)n3)n2)c1 [Example 112, 1-methyl-3-{2-[(3-methylphenyl)amino]pyrimidin-4-yl}-N-[(2S)-3-methyl-1-(pyrrolidin-1-yl)butan-2-yl]-1H-pyrazole-5-carboxamide]
20 | 0.061 µM |  |  | Cn1nc(-c2ccnc(Nc3cc(F)cc(F)c3)n2)cc1C(=O)N[C@H]1CCCC[C@@H]1N [Example 113, N-[(1S,2S)-2-aminocyclohexyl]-3-{2-[(3,5-difluorophenyl)amino]pyrimidin-4-yl}-1-methyl-1H-pyrazole-5-carboxamide]
21 | 0.191 µM |  |  | CN1CCN(c2ccc(Nc3nccc(-c4cc(C(=O)N[C@H]5CCCC[C@H]5O)n(C)n4)n3)cc2Cl)CC1 [Example 114, 3-(2-{[3-chloro-4-(4-methylpiperazin-1-yl)phenyl]amino}pyrimidin-4-yl)-N-[(1S,2R)-2-hydroxycyclohexyl]-1-methyl-1H-pyrazole-5-carboxamide]
22 | 0.023 µM |  |  | Cc1cc(C)cc(Nc2nccc(-c3cc(C(=O)N[C@H]4CCCC[C@H]4O)n(C)n3)n2)c1 [Example 115, 3-{2-[(3,5-dimethylphenyl)amino]pyrimidin-4-yl}-N-[(1S,2R)-2-hydroxycyclohexyl]-1-methyl-1H-pyrazole-5-carboxamide]
23 | 0.011 µM |  |  | Cn1nc(-c2ccnc(Nc3cc(Cl)cc(Cl)c3)n2)cc1C(=O)N[C@H]1CCCC[C@@H]1N [Example 116, N-[(1S,2S)-2-aminocyclohexyl]-3-{2-[(3,5-dichlorophenyl)amino]pyrimidin-4-yl}-1-methyl-1H-pyrazole-5-carboxamide]
24 | 0.007 µM |  |  | CC(C)[C@@H](CN1CCCC1)NC(=O)c1cc(-c2ccnc(Nc3cc(Cl)cc(Cl)c3)n2)nn1C [Example 117, 3-{2-[(3,5-dichlorophenyl)amino]pyrimidin-4-yl}-1-methyl-N-[(2S)-3-methyl-1-(pyrrolidin-1-yl)butan-2-yl]-1H-pyrazole-5-carboxamide]
25 | 0.045 µM |  |  | Cc1cc(C)cc(Nc2nccc(-c3cc(C(=O)N[C@H]4CCCC[C@@H]4O)n(C)n3)n2)c1 [Example 118, 3-{2-[(3,5-dimethylphenyl)amino]pyrimidin-4-yl}-N-[(1S,2S)-2-hydroxycyclohexyl]-1-methyl-1H-pyrazole-5-carboxamide]
26 | 0.027 µM |  |  | CCn1nc(-c2ccnc(Nc3cc(C)cc(C)c3)n2)cc1C(=O)N[C@H]1CCCC[C@H]1O [Example 120, 3-{2-[(3,5-dimethylphenyl)amino]pyrimidin-4-yl}-1-ethyl-N-[(1S,2R)-2-hydroxycyclohexyl]-1H-pyrazole-5-carboxamide]
27 | 0.012 µM |  |  | CCn1nc(-c2ccnc(Nc3cc(C)cc(C)c3)n2)cc1C(=O)N[C@H]1CCCC[C@H]1N [Example 121, N-[(1S,2R)-2-aminocyclohexyl]-3-{2-[(3,5-dimethylphenyl)amino]pyrimidin-4-yl}-1-ethyl-1H-pyrazole-5-carboxamide hydrochloride]
28 | 0.06 µM |  |  | CCn1nc(-c2ccnc(Nc3cc(C)cc(C)c3)n2)cc1C(=O)N[C@@H]1CCCNC1 [Example 122, 3-{2-[(3,5-dimethylphenyl)amino]pyrimidin-4-yl}-1-ethyl-N-[(3R)-piperidin-3-yl]-1H-pyrazole-5-carboxamide hydrochloride]
29 |  |  | > 10 µM | CCc1cccc(CC)c1NC(=O)c1cc(-c2ccnc(Nc3ccccc3OC)n2)n(C)n1 [compound 7, reference compound]
30 |  |  | > 10 µM | CCc1cccc(CC)c1NC(=O)c1cc(-c2ccnc(Nc3ccccc3OC)n2)[nH]n1 [compound 14, reference compound]
31 |  |  | > 10 µM | CNC(=O)c1cc(-c2ccnc(N(C)C)n2)n(C(C)(C)C)n1 [compound 39, reference compound]
